Assay results as given in patent US8088927B2, “Fungicide N-cycloalkyl-benzyl-amide derivatives” (Bayer Cropscience AG, priority 2006, dated 2012).

Assay: log P determination by HPLC on reversed-phase column (C 18), EEC Directive 79/831 Annex V.A8
Type: physicochemical
Settings: HPLC on reversed-phase column (C 18)
Method: Temperature: 40° C.; Mobile phases: 0.1% aqueous formic acid and acetonitrile; linear gradient from 10% acetonitrile to 90% acetonitrile.
Calibration was carried out using unbranched alkan-2-ones (comprising 3 to 16 carbon atoms) with known log P values (determination of the log P values by the retention times using linear interpolation between two successive alkanones).

Row | SMILES | LogP
1 | Cc1nn(C)c(F)c1C(=O)N(Cc1ccc(Br)cc1)C1CC1 [Compound 422] | 2.67
2 | CCn1nc(C)c(Br)c1C(=O)N(Cc1c(Cl)cc(Cl)cc1Cl)C1CC1 [Compound 541] | 2.4
3 | CCOc1nn(C)cc1C(=O)N(C1CC1)C(C)c1ccc(Cl)cc1Cl (stereo not drawn) [Compound 265] | 3.19
4 | CCOc1nn(C)cc1C(=O)N(Cc1ccc(C(F)(F)F)cc1)C1CC1 [Compound 261] | 2.92
5 | COC(c1ccc(Cl)cc1Cl)N(C(=O)c1c(C)nn(C)c1F)C1CC1 (stereo not drawn) [Compound 500] | 2.96
6 | COC(=O)C(c1ccccc1Cl)N(C(=O)c1c(C)nn(C)c1F)C1CC1 (stereo not drawn) [Compound 383] | 2.57
7 | Cn1cc(C(=O)N(Cc2ccc(C(F)(F)F)cc2)C2CC2)c(C(F)F)n1 [Compound 242] | 2.98
8 | Cc1nn(C)c(F)c1C(=O)N(Cc1cccc(Br)c1)C1CC1 [Compound 412] | 2.66
9 | Cn1cc(C(=O)N(Cc2ccc(C(F)(F)F)cc2)C2CC2)c(I)n1 [Compound 262] | 2.92
10 | Cc1nn(C)c(F)c1C(=O)N(C1CC1)C(C)c1ccc(Cl)cc1Cl (stereo not drawn) [Compound 263] | 3.19
11 | COc1nn(C)cc1C(=O)N(Cc1ccc(C(F)(F)F)cc1)C1CC1 [Compound 259] | 2.61
12 | Cn1cc(C(=O)N(Cc2c(Cl)cc(Cl)cc2Cl)C2CC2)c(I)n1 [Compound 258] | 3.34
13 | Cc1nc(C(F)F)c(C(=O)N(C2CC2)C(C)c2ccc(Cl)cc2Cl)s1 (stereo not drawn) [Compound 173] | 3.9
14 | Cc1nc(C(F)F)c(C(=O)N(Cc2c(Cl)cc(Cl)cc2Cl)C2CC2)s1 [Compound 171] | 4.1
15 | COc1nn(C)cc1C(=O)N(Cc1c(Cl)cc(Cl)cc1Cl)C1CC1 [Compound 255] | 2.97
16 | Cn1cc(C(=O)N(Cc2c(Cl)cc(Cl)cc2Cl)C2CC2)c(C(F)(F)F)n1 [Compound 256] | 3.78
17 | Cc1nn(C)c(F)c1C(=O)N(Cc1c(Cl)cc(Cl)cc1Cl)C1CC1 [Compound 238] | 3.32
18 | Cn1cc(C(=O)N(Cc2ccc(Cl)cc2Cl)C2CC2)c(C(F)F)n1 [Compound 241] | 3.27
19 | Cc1nc(C(F)F)c(C(=O)N(Cc2ccc(C(F)(F)F)cc2)C2CC2)s1 [Compound 172] | 3.37
20 | Cc1nc(C(F)F)c(C(=O)N(C2CC2)C(C#N)c2ccc(Cl)cc2Cl)s1 (stereo not drawn) [Compound 209] | 3.61
21 | Cc1nc(C(F)(F)F)c(C(=O)N(Cc2c(Cl)cc(Cl)cc2Cl)C2CC2)s1 [Compound 170] | 4.52

Row | SMILES | LogP
22 | CC(c1ccc(C(F)(F)F)cc1)N(C(=O)c1cn(C)nc1C(F)F)C1CC1 (stereo not drawn) [Compound 246] | 3.27
23 | CCOc1nn(C)cc1C(=O)N(Cc1c(Cl)cc(Cl)cc1Cl)C1CC1 [Compound 257] | 3.35
24 | Cn1cc(C(=O)N(Cc2ccc(Oc3ccccc3)cc2)C2CC2)c(C(F)F)n1 [Compound 244] | 3.37
25 | Cn1cnc(C(=O)N(Cc2c(Cl)cc(Cl)cc2Cl)C2CC2)c1 [Compound 503] | 2.40
26 | Cn1cc(C(=O)N(Cc2ccc(C(F)(F)F)cc2)C2CC2)c(C(F)(F)F)n1 [Compound 260] | 3.29
27 | Cc1nc(C(F)F)c(C(=O)N(Cc2ccc(Cl)cc2Cl)C2CC2)s1 [Compound 169] | 3.74
28 | COc1nn(C)cc1C(=O)N(Cc1ccc(Cl)cc1Cl)C1CC1 [Compound 251] | 2.81
29 | CCOc1nn(C)cc1C(=O)N(Cc1ccc(Cl)cc1Cl)C1CC1 [Compound 253] | 3.22
30 | Cc1nc(C(F)(F)F)c(C(=O)N(Cc2ccc(Cl)cc2Cl)C2CC2)s1 [Compound 168] | 4.19
31 | CC(c1ccc(Cl)cc1Cl)N(C(=O)c1cn(C)nc1I)C1CC1 (stereo not drawn) [Compound 266] | 3.22
32 | CCC(c1ccc(Cl)cc1Cl)N(C(=O)c1c(C)nn(C)c1F)C1CC1 (stereo not drawn) [Compound 386] | 3.53
33 | Cn1cc(C(=O)N(Cc2ccc(Cl)cc2Cl)C2CC2)c(I)n1 [Compound 254] | 3.15
34 | Cn1cc(C(=O)N(Cc2c(Cl)cc(Cl)cc2Cl)C2CC2)c(C(F)F)n1 [Compound 243] | 3.46
35 | COc1nn(C)cc1C(=O)N(C1CC1)C(C)c1ccc(Cl)cc1Cl (stereo not drawn) [Compound 264] | 2.83
36 | CC(c1ccc(Cl)cc1Cl)N(C(=O)c1cn(C)nc1C(F)F)C1CC1 (stereo not drawn) [Compound 245] | 3.31
37 | Cc1nn(C)c(F)c1C(=O)N(C1CC1)C(C#N)c1ccc(Cl)cc1Cl (stereo not drawn) [Compound 385] | 3.15
38 | Cc1nn(C)c(F)c1C(=O)N(Cc1ccc(C(F)(F)F)cc1)C1CC1 [Compound 237, N-(4-trifluoromethyl-benzyl)-N-cyclopropyl-5-fluoro-1,3-dimethyl-1H-pyrazole-4-carboxamide] | 2.8
39 | Cc1nn(C)c(F)c1C(=O)N(Cc1ccc(Cl)cc1Cl)C1CC1 [Compound 236] | 3.04
40 | Cn1cc(C(=O)N(Cc2ccc(Cl)cc2Cl)C2CC2)c(C(F)(F)F)n1 [Compound 252] | 3.58
41 | Cc1nc(C(F)F)c(C(=O)N(C2CC2)C(C#N)c2c(Cl)cccc2Cl)s1 (stereo not drawn) [Compound 213] | 3.14

Same assay, conditions: HPLC, C 18, 40° C., 0.1% aqueous formic acid and acetonitrile gradient

Row | SMILES | LogP
42 | O=C(c1sccc1I)N(Cc1ccc(C(F)(F)F)cc1)C1CC1 [Compound 60] | 4.04
43 | Cn1cc(C(=O)N(Cc2ccc(C(F)(F)F)cc2)C2CC2)c(C(F)(F)F)c1 [Compound 100] | 3.55
44 | Cc1occc1C(=O)N(Cc1ccc(Cl)cc1Cl)C1CC1 [Compound 11] | 3.77
45 | Cc1cc(C(=O)N(Cc2c(Cl)cc(Cl)cc2Cl)C2CC2)c(C(F)(F)F)o1 [Compound 14] | 4.91
46 | Cc1cc(C(=O)N(Cc2ccc(Cl)cc2Cl)C2CC2)c(C(F)(F)F)o1 [Compound 12] | 4.6
47 | O=C(c1sccc1I)N(Cc1ccc(Cl)cc1Cl)C1CC1 [Compound 58] | 4.48
48 | Cc1occc1C(=O)N(Cc1c(Cl)cc(Cl)cc1Cl)C1CC1 [Compound 13] | 4.09
49 | Cc1cc(C(=O)N(Cc2ccc(C(F)(F)F)cc2)C2CC2)c(C(F)(F)F)o1 [Compound 16] | 4.18
50 | Cn1cc(C(=O)N(Cc2c(Cl)cc(Cl)cc2Cl)C2CC2)c(C(F)(F)F)c1 [Compound 99] | 4.08
51 | Cc1occc1C(=O)N(Cc1ccc(C(F)(F)F)cc1)C1CC1 [Compound 15] | 3.43
52 | O=C(c1sccc1I)N(Cc1c(Cl)cc(Cl)cc1Cl)C1CC1 [Compound 59] | 4.86
53 | Cn1cc(C(=O)N(Cc2ccc(Cl)cc2Cl)C2CC2)c(C(F)(F)F)c1 [Compound 98] | 3.88

Same assay, conditions: reversed-phase HPLC column (C 18); HPLC, C 18, 40° C., 0.1% aqueous formic acid and acetonitrile gradient

Row | SMILES | chromatographic logP
54 | Cc1nn(C)c(F)c1C(=O)N(Cc1ccc(C(F)(F)F)cc1)C1CC1 [Compound 237, N-(4-trifluoromethyl-benzyl)-N-cyclopropyl-5-fluoro-1,3-dimethyl-1H-pyrazole-4-carboxamide] | 2.8
